# According to patent US8445509B2, “Fused heterocyclic derivatives and use thereof” (Takeda Pharmaceutical Company Limited, priority 2008, dated 2013):
# Key:
# MKN-45 cells = assay: Antitumor test, MKN-45 transplanted nude mouse; format: in vivo, nude mouse (BALB/c nu/nu); details: orally, 14 consecutive days
# Method: (§1) Cancer cells were cultured in a culture medium containing 10% bovine fetal serum in an incubator at 37° C., 5% CO2. MKN-45 cells were treated with trypsin/EDTA and isolated. MKN-45 and MV-4-11 cells were washed with HBSS (HANK's Balanced Saline Solution). When MKN-45 cells were transplanted, they were adjusted with HBSS to a cell density of 1.2×10^8 cells/mL, and transplanted by subcutaneous injection of 0.05 mL of a mixed suspension (3×10^6 cells) of the cell suspension and the same amount of Matrigel into the abdomen of 6 or 7-week-old female nude mouse (BALB/c nu/nu, CLEA Japan, Inc.). When MV-4-11 cells were transplanted, they were adjusted with HESS to a cell density of 1.2×10^8 cells/mL, and transplanted by subcutaneous injection of 0.05 mL of a mixed suspension (3×10^6 cells) of the cell suspension and the same amount of Matrigel into the abdomen of 7-week-old female nude mouse (BALB/c nu/nu, CLEA Japan, Inc.). When the average tumor volume reached 100-250 mm^3, the mice were grouped, and various doses of test substance were orally administered for 14 consecutive days starting from the next day. The length of the major axis and the length of the minor axis of the tumor were measured over time and the tumor volume was calculated by tumor volume=major axis length×minor axis length×minor axis length×0.5. The ratio of an increase in the average tumor volume of the control group to an increase in the average tumor volume of the drug administration group was taken as the tumor growth rate (%) of the drug administration group. Table 5 showned MKN-45 tumor growth rate (%) and table 6 showned MV-4-11 tumor growth rate (%).
# MV-4-11 cells = assay: Antitumor test, MV-4-11 transplanted nude mouse; format: in vivo, nude mouse (BALB/c nu/nu); details: MV-4-11, dose 2 mg/kg, orally, 14 consecutive days
# Method: as §1
# [1] = system: Human blood cell cancer cell line MV-4-11; assay: Human blood cell cancer cell line MV-4-11 growth inhibitory test; format: cell-based; details: MV4-11, 72 h, culture for 3 days
# Method: Human blood cell cancer cell line MV-4-11 (ATCC) was cultured in IMDM (Invitrogen) containing 10% bovine fetal serum in an incubator at 37° C., 5% CO2. MV-4-11 cells were treated with trypsin/EDTA and recovered. The cells were suspended in IMDM containing 10% bovine fetal serum, plated on a 96 well flat bottom plate at a cells density of 30,000 cells/50 μL per well. After culturing overnight, various concentrations of test substance were dissolved in IMDM containing 10% bovine fetal serum and added to each well by 50 μL. After culture for 3 days, a Cell counting kit-8 reagent (DOJINDO LABORATORIES) was added to each well by 10 μL, and reacted in an incubator at 37° C., 5% CO2 for 2-3 hr. After the reaction, the absorbance of each well at 450 nm was measured by a microtiter plate reader. The concentration of a test substance necessary for inhibiting the growth by 50% (IC50 value) was calculated using a cell proliferation rate with addition of the test substance at each concentration and according to the nonlinear regression analysis using GraphPad Prism [Sigmoidal dose response (variable slope)].
# [2] = biological target: T1, FLT3 intracellular domain protein (Homo sapiens, UniProt P36888); assay: Fms Like Tyrosine Kinase 3 (FLT3) kinase inhibitory activity (AlphaScreen); format: biochemical
# T1 construct: 7.5 ng/ml of FLT3 intracellular domain protein (Millipore); purchased Millipore
# T1 sequence (P36888 564-993 limits assumed): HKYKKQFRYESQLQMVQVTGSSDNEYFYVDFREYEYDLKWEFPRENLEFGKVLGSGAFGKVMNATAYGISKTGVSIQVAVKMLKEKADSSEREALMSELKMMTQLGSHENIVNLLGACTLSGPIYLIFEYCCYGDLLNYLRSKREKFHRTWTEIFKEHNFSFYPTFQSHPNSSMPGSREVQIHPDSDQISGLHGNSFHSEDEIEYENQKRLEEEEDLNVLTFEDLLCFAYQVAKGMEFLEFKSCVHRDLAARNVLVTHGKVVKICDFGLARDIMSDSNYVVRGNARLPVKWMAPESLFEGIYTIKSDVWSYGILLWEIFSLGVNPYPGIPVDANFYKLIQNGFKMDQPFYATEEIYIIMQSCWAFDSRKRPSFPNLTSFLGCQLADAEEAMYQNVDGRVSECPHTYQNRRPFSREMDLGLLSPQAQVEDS
# Method: A test compound dissolved in dimethyl sulfoxide (DMSO) was diluted with a buffer (50 mM Tris-HCl (pH 7.5), 5 mM MgCl2, 5 mM MnCl2, 2 mM dithiothreitol, 0.01% Tween-20). To this compound solution (5 μL) was added a buffer (10 μL) containing 7.5 ng/ml of FLT3 intracellular domain protein (Millipore) and 250 ng/mL of biotin labeled polypeptide biotinyl-poly-Glu:Tyr (4:1) (CIS bio International). At 5 min after mixing kinase enzyme and the compound and biotin labeled polypeptide, to the obtained mixture was added a buffer (10 μL) containing ATP (5 μM), the mixture was allowed to react at 25° C. for 10 min and the reaction was quenched with 25 μL of a stop solution (100 mM EDTA disodium salt, 62.5 mM HEPES buffer (pH 7.4), 250 mM NaCl, 0.1% bovine serum albumin, 10 μg/mL AlphaScreen assay streptavidin donor beads (Streptavidin Donor Beads: PerkinElmer), 10 μg/mL AlphaScreen assay anti-phosphotyrosine recognition antibody Y-100 binding acceptor beads (Anti-phosphotyrosine (P-Tyr-100) Acceptor beads: PerkinElmer)). The reaction solution was allowed to stand at 25° C. for 16 hrs, and the wells were counted using a plate reader (Envision™ (PerkinElmer)). The kinase inhibitory rate (%) of the test compound was calculated by the following formula: Inhibitory rate (%)=(1−(count of test compound−blank)÷(control−blank))×100
# (§2) The count of the solution reacted without addition of the compound was used as a “control”, and the count of the solution without the compound and ATP was used as a “blank”.
# [3] = system: Human gastric cancer cell line MKN-45; assay: Human gastric cancer cell line MKN-45 growth inhibitory test; format: cell-based; details: MKN-45, 72 h
# Method: Human gastric cancer cell line MKN-45 (RIKEN BioResource Center) was cultured in RPMI1640 (Invitrogen) containing 10% bovine fetal serum in a gas incubator at 37° C., 5% CO2. MKN-45 cells were treated with trypsin/EDTA and recovered. The cells were suspended in RPMI1640 containing 0.3% bovine fetal serum, plated on a 96 well flat bottom plate at a cells density of 3000 cells/50 μL per well. After culturing overnight, various concentrations of test substance were dissolved in RPMI1640 containing 0.3% bovine fetal serum and added to each well by 50 μL. After culture for 3 days, a Cell counting kit-8 reagent (DOJINDO LABORATORIES) was added to each well by 10 μL, and reacted in an incubator at 37° C., 5% CO2 for 2-3 hr. After the reaction, the absorbance of each well at 450 nm was measured by a microtiter plate reader. The concentration of a test substance necessary for inhibiting the growth by 50% (IC50 value) was calculated using a cell proliferation rate with addition of the test substance at each concentration and according to the nonlinear regression analysis using GraphPad Prism [Sigmoidal dose response (variable slope)]. The cell proliferation rate (%) with addition of a test substance at each concentration was calculated by the following formula. As a positive control (100% growth), dimethyl sulfoxide was added instead of a test substance. As a negative control (0% growth), the compound of Reference Example 136 (WO2005/030140, Entry 104), which is a known c-Met inhibitor, was added in large excess (10 μM) instead of a test substance.
# [4] = biological target: T2, Tie2 intracellular domain protein (Homo sapiens, UniProt Q02763); assay: TIE2 kinase inhibitory activity (AlphaScreen); format: biochemical
# T2 construct: 50 ng/mL of Tie2 intracellular domain protein (Millipore); purchased Millipore
# Method: A test compound dissolved in dimethyl sulfoxide (DMSO) was diluted with a buffer (50 mM Tris-HCl (pH 7.5), 5 mM MgCl2, 5 mM MnCl2, 2 mM dithiothreitol, 0.01% Tween-20). A buffer (10 μL) containing 50 ng/mL of Tie2 intracellular domain protein (Millipore) and 250 ng/ml, of biotin labeled polypeptide biotinyl-poly-Glu:Tyr (4:1) (CIS bio International) was added to the compound solution (5 μL). At 5 min from the mixing of the kinase enzyme, the compound and the biotin labeled polypeptide, a buffer (10 μL) containing 5 μM ATP was added, and the mixture was reacted at 25° C. for 10 min. The reaction was quenched by the addition of 25 μL of a stop solution (100 mM EDTA disodium salt, 62.5 mM HEPES buffer (pH 7.4), 250 mM NaCl, 0.1% bovine serum albumin, 10 μg/ml AlphaScreen assay streptavidin donor beads (Streptavidin Donor beads: PerkinElmer), 10 μg/ml, AlphaScreen assay anti-phosphotyrosine recognition antibody PT-66 binding acceptor beads (Anti-phosphotyrosine (PT-66) Acceptor beads: PerkinElmer)). The reaction solution was allowed to stand at 25° C. for 16 hrs, and the […] were counted using a plate reader (Fusion™ (PerkinElmer)). The kinase inhibitory rate (%) of the test compound was calculated by the following formula: Inhibitory rate (%)=(1−(count of test compound−blank)÷(control−blank))×100
# as §2
# [5] = system: Human umbilical vein-derived vascular endothelial cells (HUVEC); assay: Vascular endothelial cell proliferation inhibitory test (VEGF-stimulated HUVEC); format: cell-based; details: 120 h, 5 days of culture with VEGF
# Method: Human umbilical vein-derived vascular endothelial cells (HUVEC purchased from KURABO […] LTD.) were cultured in an incubator at 37° C., 5% carbon dioxide in a vascular endothelial cell medium (Invitrogen) containing 3% bovine fetal serum and 2.5 ng/mL basic fibroblast growth factor. To be specific, HUVEC was suspended in a vascular endothelial cell medium containing the aforementioned 3% bovine fetal serum and plated on a 96 well flat bottom plate by 50 μL (3000 cells) each well. After culture overnight, various concentrations of the test substance and 120 ng/mL of vascular endothelial growth factor (VEGF) were dissolved in a vascular endothelial cell medium containing 3% bovine fetal serum and added to each well by 50 μL. After 5 days of culture, a Cell counting kit-8 reagent (DOJINDO LABORATORIES) was added to each well by 10 μL, and the mixture was reacted in an incubator at 37° C., 5% carbon dioxide for 2-3 hr. The absorbance at 450 nm was measured by a microtiter plate reader and the cell proliferation inhibitory activity was determined. Using the absorbance with addition of a test substance at each concentration and based on the nonlinear least-squares analysis using a logistic curve of SAS system NLIN procedure, the concentration of the test substance (IC50 value) necessary for showing 50% of the value obtained without addition of the test substance was calculated.
# T2 sequence (Q02763 770-1124 limits assumed): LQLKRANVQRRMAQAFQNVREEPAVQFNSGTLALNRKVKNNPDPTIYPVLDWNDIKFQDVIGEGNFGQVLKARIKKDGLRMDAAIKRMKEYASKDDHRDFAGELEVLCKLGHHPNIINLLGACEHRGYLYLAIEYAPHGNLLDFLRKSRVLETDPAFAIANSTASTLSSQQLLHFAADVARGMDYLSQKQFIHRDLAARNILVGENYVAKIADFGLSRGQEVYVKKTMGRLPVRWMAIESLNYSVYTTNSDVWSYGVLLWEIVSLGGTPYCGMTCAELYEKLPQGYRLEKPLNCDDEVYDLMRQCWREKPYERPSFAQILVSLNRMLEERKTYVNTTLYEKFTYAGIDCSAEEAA
compound,measurement,setting,value
"Cc1ccc(C(=O)Nc2ccc(Oc3ccc4nc(NC(=O)C5CC5)cn4c3)c(F)c2)c(=O)n1-c1ccccc1.Cc1ccc(S(=O)(=O)O)cc1 [Example 87, N-[4-({2-[(cyclopropylcarbonyl)amino]imidazo[1,2-a]pyridin-6-yl}oxy)-3-fluorophenyl]-6-methyl-2-oxo-1-phenyl-1,2-dihydropyridine-3-carboxamide p-toluenesulfonate]",tumor growth rate (%),"MKN-45 cells; MKN-45, dose 2 mg/kg",17%
same,tumor growth rate (%),MV-4-11 cells,<0%
"Cl.O=C(Nc1cn2cc(Oc3ccc(NC(=O)C4(C(=O)Nc5ccccc5)CC4)cc3F)ccc2n1)C1CC1 [Example 15, N-[4-({2-[(cyclopropylcarbonyl)amino]imidazo[1,2-a]pyridin-6-yl}oxy)-3-fluorophenyl]-N′-phenylcyclopropane-1,1-dicarboxamide hydrochloride]",tumor growth rate (%),"MKN-45 cells; MKN-45, dose 2 mg/kg",85%
same,tumor growth rate (%),MV-4-11 cells,17%
"Cc1ccc(C(=O)Nc2ccc(Oc3ccc4nc(NC(=O)C5CC5)cn4c3)c(F)c2)c(=O)n1-c1ccccc1 [Example 86, N-[4-({2-[(cyclopropylcarbonyl)amino]imidazo[1,2-a]pyridin-6-yl}oxy)-3-fluorophenyl]-6-methyl-2-oxo-1-phenyl-1,2-dihydropyridine-3-carboxamide acetate]",inhibition at 1 µM,"[1]; 1 μM test substance, read-out: inhibitory rate (%) at 1 μM",≥ 90%
same,IC50,[1],≤ 1000 nM
same,IC50,[2],≤ 1000 nM
same,IC50,[3]; read-out: IC50 value,≤ 1000 nM
same,inhibition at 1 µM,"[3]; read-out: inhibitory rate (%) at 1 μM, 1 μM test substance, culture for 3 days",≥ 80%
same,IC50,[4],≤ 1000 nM
same,IC50,[5],≤ 2000 nM
"Cc1ccc(C(=O)Nc2ccc(Oc3ccc4nc(NC(=O)C5CC5)cn4c3)cn2)[n+]([O-])c1-c1ccc(F)cc1.Cl.O [Example 63, N-[5-({2-[(cyclopropylcarbonyl)amino]imidazo[1,2-a]pyridin-6-yl}oxy)pyridin-2-yl]-6-(4-fluorophenyl)-5-methylpyridine-2-carboxamide 1-oxide•hydrochloride•monohydrate]",tumor growth rate (%),"MKN-45 cells; MKN-45, dose 1 mg/kg",24%
same,tumor growth rate (%),MV-4-11 cells,<0%
"Cc1ccc(C(=O)Nc2ccc(Oc3ccc4nc(NC(=O)C5CC5)cn4c3)c(F)c2)c(=O)n1-c1ccccc1.Cl [Example 88, N-[4-({2-[(cyclopropylcarbonyl)amino]imidazo[1,2-a]pyridin-6-yl}oxy)-3-fluorophenyl]-6-methyl-2-oxo-1-phenyl-1,2-dihydropyridine-3-carboxamide hydrochloride]",tumor growth rate (%),"MKN-45 cells; MKN-45, dose 2 mg/kg",17%
same,tumor growth rate (%),MV-4-11 cells,<0%
